Assay results from patent US20240368278A1, “GENERATION AND CHARACTERIZATION OF NOVEL TIM-4 BINDING AGENTS” (Heat Biologics, Inc., priority 2021, published 2024).
“Also recorded” adds a separate entry of the source.

Experiments:
THP-1 cells [1] = assay: Autophagy assay (autophagosome formation) in THP-1 cells; assay type: cell-based; settings: labeled autophagosomes, Hoechst nuclear stain
Excerpt: In FIG. 11B, autophagosomes are labeled and Hoechst stain is used for nuclear staining.

Tim-4 = biological target: T1, Tim-4 (Homo sapiens, UniProt Q96H15); assay: Binding to Tim-4 (identification of binders)
T1 sequence (Q96H15 25-378): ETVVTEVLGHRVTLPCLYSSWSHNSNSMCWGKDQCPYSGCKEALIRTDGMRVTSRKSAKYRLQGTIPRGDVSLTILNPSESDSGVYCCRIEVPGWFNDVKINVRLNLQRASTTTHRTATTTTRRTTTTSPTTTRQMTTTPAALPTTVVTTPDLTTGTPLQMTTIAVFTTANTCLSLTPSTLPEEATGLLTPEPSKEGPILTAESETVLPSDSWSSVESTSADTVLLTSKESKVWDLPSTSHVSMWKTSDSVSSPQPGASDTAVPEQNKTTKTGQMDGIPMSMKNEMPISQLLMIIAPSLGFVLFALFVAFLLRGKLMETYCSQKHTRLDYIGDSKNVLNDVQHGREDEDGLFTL

Tim4-Hek293-FT cells = assay: Phagocytosis assay in Tim4-Hek293-FT cell line; assay type: cell-based; settings: for inhibition of phagocytosis (RFU): Tim4-Hek293-FT cells, 96 well plate, vs untreated control
Method: Stable Tim-4 expression was confirmed by RT-PCR using primers against Tim-4 mRNA and Gapdh mRNA (control). […] Scale bar represents 300 μm.
In FIG. 5A, the Tim4-Hek293-FT cells were plated in a 96 well plate, followed by the phagocytosis assay. Statistical analysis was performed using a t-test (p>0.05=*). Relative fluorescence units (“RFU”) were normalized to fluorescent intensity at hour zero. In FIG. 5B, Tim4-Hek293-FT cells were fixed and immunolabeled against Tim-4 and counterstained with DAPI. […] Arrows indicate phosphatidylserine bead. Scale bar represents 75 μm.
In FIG. 7A, cells were plated on a 96 well plate and treatments were performed similar to FIG. 2A. Statistics were performed using a one-way ANOVA followed by a multiple comparison test comparing each treatment to the “untreated” control (p>0.05=*, p>0.01=**, p>0.001=***). […] In FIG. 7A, “116-117 1A” is SEQ ID NO: 30 ([…]), “116-117 2C” is SEQ ID NO: 23 ([…]), “116-117 2D” is SEQ ID NO: 24 ([…]), “116-117 2F” is SEQ ID NO: 25 ([…]), “116-117 3B” is SEQ ID NO: 26 ([…]), “116-117 3C” is SEQ ID NO: 27 ([…]), “116-117 3E” is SEQ ID NO: 17 ([…]), “116-117 3F” is SEQ ID NO: 28 ([…]), “116-117 4A” is SEQ ID NO: 22 ([…]), and “116-117 4G” is SEQ ID NO: 29 ([…]). […] Scale bar represents 150 μm.
To further validate the function of the synthesized peptides, a Tim4-Hek293-FT cell line was developed (FIG. 4A).
A phagocytosis assay, as previously described above and following the experimental outline of FIG. 2A, was performed in the Tim4-Hek293-FT cells. In these experiments, cytochalasin D (20 μM) was used as a control to show phagocytosis failure. […] The inhibition of phagocytosis by SEQ ID NO: 17 is also shown in the immunofluorescence images of FIG. 7B.

THP-1 cells [2] = assay: Phagocytosis assay in THP-1 cells with phosphatidylserine lipid microparticles; assay type: cell-based; settings: for inhibition of phagocytosis (RFU): phosphatidylserine lipid microparticles, peptides at 100 μg/mL, 3 h under serum starvation, vs untreated control
Excerpt: FIG. 2A, FIG. 2B, and FIG. 2C show an image of the THP-1 experimental workflow, an image of THP-1 cells undergoing phagocytosis, and a graph showing data from the phagocytosis experiment. FIG. 2A is an image of the experimental workflow. FIG. 2B is a graph showing data from the peptides derived from the CDR3 regions of antibodies tested in the phagocytosis assay. In FIG. 2B, along the x-axis, “156-1G” refers to SEQ ID NO: 7, “156-IH” refers to SEQ ID NO: 11, “156-2B” refers to SEQ ID NO: 3, and “156-2F” refers to SEQ ID NO: 15. In this assay, cells were treated with the indicated treatments, and cytochalasin D (20 μM) was used as a control to show phagocytosis failure. CDR3 regions from antibodies that bound to Tim-4 were synthesized as peptides, and subsequently tested. The data shown in FIG. 2B represents peptides tested at 100 μg/mL. Statistics were performed using a one-way ANOVA followed by a multiple comparison test comparing each treatment to “untreated” control (p>0.05=*, ns=not significant). […] Phosphatidylserine (“PS”) lipid microparticles are shown and superimposed onto brightfield images of THP-1 cells. […] Scale bar represents 150 μm.
Phagocytosis assays using the developed peptides derived from the CDR3 regions of antibodies (e.g., SEQ ID NO: 35, SEQ ID NO: 36, SEQ ID NO: 37, and SEQ ID NO: 38) and THP-1 cells were completed by following the experimental outline shown in FIG. 2A. In these experiments, 1×10^5 cells were seeded on a 96 well plate, and the synthesized peptides (e.g., SEQ ID NO: 35, SEQ ID NO: 36, SEQ ID NO: 37, and SEQ ID NO: 38) were then added onto the plate for three hours under serum starvation. Phosphatidylserine lipid microparticles were then added in media containing 10% FBS. Cells were then washed 3 to 5 times with PBS, and the level of fluorescence (e.g., relative fluorescence units, “RFU”) was then analyzed with a plate reader. In these experiments, cytochalasin D (20 μM) was used as a control to show phagocytosis failure. […]

THP-1 cells [3] = assay: Phagocytosis assay in THP-1 cells with carboxylate beads; assay type: cell-based; settings: 96 well plate, vs untreated control
Method: FIG. 3A and FIG. 3B are graphs showing dose response curves of the phagocytosis assay in THP-1 cells using both PS beads and carboxylate beads.
In FIG. 8A, cells were plated on a 96 well plate and treatments were performed with carboxylate beads. Statistics were performed using a one-way ANOVA followed by a multiple comparison test comparing each treatment to the “untreated” control (p>0.05=*, p>0.01=**, p>0.001=***, p>0.0001=****). FIG. 8B are representative images of the phagocytosis assay. […] Scale bare represents 150 μm. […] Scale bar represents 150 μm. FIG. 8D is a graph of a dose response curve.
(§1) To further validate the function of the synthesized peptide, SEQ ID NO: 17, a phagocytosis assay using SEQ ID NO: 17 in THP-1 cells (FIG. 8A, FIG. 8B, FIG. 8C, and FIG. 8D), and in RAW 264.7 cells (FIG. 9A and FIG. 9B), was performed. […] A dose response curve for SEQ ID NO: 17 in THP-1 cells was generated (FIG. 8D). […] A dose response curve for SEQ ID NO: 17 in RAW 264.7 cells was generated (FIG. 9B).

RAW 264.7 cells = assay: RAW phagocytosis assay with carboxylate beads; assay type: cell-based, mouse; settings: across a range of doses
Method: In FIG. 9A, cells were plated on a 96 well plate and treatments were performed with carboxylate beads. Statistics were performed using a one-way ANOVA, followed by a multiple comparison test comparing each treatment to the “untreated” control (p>0.05=*, p>0.01=**, p>0.001=***, p>0.0001=****). In FIG. 9B, a dose response curve of a RAW phagocytosis assay was performed using mouse macrophages RAW cells with cytochalasin D as a control, and graphed in log scale.
as §1

| Sequence | autophagosome formation (THP-1 cells [1]) | binding to Tim-4 (Tim-4) | phagocytosis of the phosphatidylserine bead (immunofluorescence image) (Tim4-Hek293-FT cells; Tim4-Hek293-FT cells fixed, immunolabeled against Tim-4, DAPI) | inhibition of phagocytosis (RFU) (Tim4-Hek293-FT cells) | inhibition of phagocytosis (RFU) (Tim4-Hek293-FT cells; listed as 116-117 3E) | inhibition of phagocytosis with phosphatidylserine lipid microparticles compared to carboxylate beads (dose response curves) (THP-1 cells [2]) | inhibition of phagocytosis (THP-1 cells [3]) | inhibition of phagocytosis (THP-1 cells [3]; listed as 116-117 3E) | inhibition of phagocytosis (RAW 264.7 cells) | inhibition of phagocytosis (RFU) (THP-1 cells [2]) |
| --- | --- | --- | --- | --- | --- | --- | --- | --- | --- | --- |
| QCYANHMYCNDSIAVYHFQM [SEQ ID NO: 17] | reduces autophagosome formation | bound to Tim4 | reduced ability of phagocytosis | inhibited phagocytosis | inhibits phagocytosis | greater inhibition | inhibited phagocytosis | inhibits phagocytosis | inhibited phagocytosis | – |
| KVAVMTMAEANRRGTYSS [SEQ ID NO: 3] | – | – | – | inhibit phagocytosis; also recorded: limit phagocytosis | – | – | – | – | – | significantly inhibited phagocytosis |
| QTLAFAYNDSDWFEVYKG [156-1G] | – | – | – | – | – | – | – | – | – | significantly inhibited phagocytosis |
